Where two headings read alike, the source gives them in different places.
Key:
[1] = test system: Mycobacterium tuberculosis; details: at 10 millimolar
[2] = rat liver, cited from earlier work

| SMILES | Mycobacterium tuberculosis CFU/ml [1] | removal of toxin ([2]; intravenous) | removal of toxin ([2]; oral) |
| --- | --- | --- | --- |
| CC(=O)N[C@@H](CS)C(=O)O [NAC, N-Acetyl Cysteine] | 8,000 CFU/ml | – | – |
| N[C@@H](CCC(=O)N[C@@H](CS)C(=O)NCC(=O)O)C(=O)O [Plain glutathione, glutathione] | – | 64% | 0% |

From patent publication US9913801B2 (YOUR ENERGY SYSTEMS, LLC, priority 2013, dated 2018)
